Experimental data from the supplement of paper PMC6723410.

Experiments:
GUMC-403 [1] = experiment: viability at highest tested concentration (max response) relative to DMSO (% of DMSO control); higher = less cytotoxic; details: library / dose series: MIPE library, 11-point 1:3 dilution, 48 h
In short: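 GUMC-403 papilloma cells, derived from a patient and expanded by conditional reprogramming, were dispensed at 700/well into 1536-well plates in 5 μL F + Y medium. A pin tool delivered 23 nL of each compound across an 11-point 1:3 dilution series for 48 h. CellTiter-Glo luminescence, read on a ViewLux, was normalised so that vehicle wells equalled 100% and empty wells 0%. Values report viability at the highest tested concentration relative to vehicle control.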

GUMC-403 [2] = experiment: AC50 for reduction of cell viability; higher = less potent; details: library / dose series: MIPE library, 11-point 1:3 dilution; 48 h

SMILES | viability (GUMC-403 [1]; top concentration 46.1 µM) | AC50 for reduction of cell viability (GUMC-403 [2]) [nM] | viability (GUMC-403 [1]; top concentration 92.2 µM)
CSCC[C@H](NC(=O)[C@H](Cc1c[nH]c2ccccc12)NC(=O)CCNC(=O)OC(C)(C)C)C(=O)N[C@@H](CC(=O)O)C(=O)N[C@@H](Cc1ccccc1)C(N)=O | 30.1 | 5900 | –
C[S+](=O)([O-])N1CCc2c(-c3cnc(N)nc3)nc(N3CCOCC3)nc21 | 46.2 | 332 | –
c1nc2c(NC3CCCCC3)nc(Nc3ccc(N4CCOCC4)cc3)nc2[nH]1 | 31.3 | 18700 | –
C[C@H](NCc1ccc2c(c1)nc(NC(=O)c1ccc(-c3cn[nH]c3)s1)n2CCc1ccccc1)C(C)(C)C | 8.07 | 3720 | –
Cc1nc(Nc2n[nH]c3c2CN(C(=O)N[C@H](CN(C)C)c2ccccc2)C3(C)C)c2sccc2n1 | 7.84 | 3720 | –
C[C@@]12O[C@@H](C[C@]1(O)CO)n1c3ccccc3c3c4c(c5c6ccccc6n2c5c31)CNC4=O | 7.55 | 5900 | –
CC[S+](=O)([O-])Nc1ccc2c(c1)/C(=C(/Nc1ccc(CN3CCCCC3)cc1)c1ccccc1)C(=O)N2 | 50 | 1320 | –
CC(C)Oc1cc(Nc2nc(N[C@@H](C)c3ccc(F)cn3)ncc2Cl)n[nH]1 | 58.4 | 8330 | –
CS[C@H]1SC[C@@H]2C(=O)N(C)[C@H](C(C)C)C(=O)OC[C@H](NC(=O)c3cnc4ccccc4n3)C(=O)N[C@H](C)C(=O)N(C)[C@H]1C(=O)N(C)[C@H](C(C)C)C(=O)OC[C@H](NC(=O)c1cnc3ccccc3n1)C(=O)N[C@H](C)C(=O)N2C | 14.4 | 20.9 | –
CCOc1cc2ncc(C#N)c(Nc3ccc(OCc4ccccn4)c(Cl)c3)c2cc1NC(=O)/C=C/CN(C)C | 54.2 | 74.3 | –
NC(=O)Nc1cc(-c2cccc(F)c2)sc1C(=O)N[C@H]1CCCNC1 | 12.8 | 16600 | –
CC(=O)[C@]1(O)Cc2c(O)c3c(c(O)c2[C@@H](O[C@H]2C[C@H](N)[C@H](O)[C@H](C)O2)C1)C(=O)c1ccccc1C3=O | 7.29 | 2350 | –
CCC1=C2CN3C(=O)\C4=C(/C=C3/C2=NC5=CC=C(O)C=C15)[C@@](O)(CC)C(=O)OC4 | 78.2 | 4690 | –
NC(=O)[C@@H](CCC(F)(F)F)N(Cc1ccc(-c2ncon2)cc1F)[S+](=O)([O-])c1ccc(Cl)cc1 | 76.2 | 132 | –
COC[C@H]1OC(=O)C2=COC3=C2[C@@]1(C)\C4=C(\[C@@H]5CC[C@H](O)[C@@]5(C)C[C@H]4OC(C)=O)C3=O | 57.4 | 4180 | –
C[C@@H]1O[C@@H](O[C@H]\2CC[C@]\3(C)[C@@H]4CC[C@]5(C)[C@@H](CC[C@@]5(O)[C@H]4CCC3=C2)C/6=C/OC(=O)/C=C6)[C@H](O)[C@H](O)[C@@H]1O | 44.3 | 16.6 | –
C[C@@H]1O[C@@H](O[C@H]2C[C@@H](O)[C@]3(CO)[C@H]4[C@H](O)C[C@]5(C)[C@@H](C6=CC(=O)OC6)CC[C@]5(O)[C@@H]4CC[C@]3(O)C2)[C@H](O)[C@H](O)[C@H]1O | 75.4 | 29.6 | –
Cc1ncc(-c2ccnc(Nc3ccc([S+](C)(=O)[O-])cc3)n2)n1C(C)C | 47.8 | 10500 | –
Nc1nc(F)nc2c1ncn2[C@@H]1O[C@H](CO)[C@@H](O)[C@H]1O | 47.8 | 3720 | –
Nc1nc(N)c2nc(-c3cccc(O)c3)c(-c3cccc(O)c3)nc2n1 | 32.4 | 5260 | –
COc1cc2ncnc(Nc3ccc(F)c(Cl)c3)c2cc1OCCCN1CCOCC1 | – | 270 | 58.7
NC(=O)c1ccc2[nH]c(-c3ccc(Oc4ccc(Cl)cc4)cc3)nc2c1 | 79.5 | 2640 | –
CCNC(=O)Nc1ccc(-c2nc3c(c(N4CCOC[C@@H]4C)n2)CCN(C2COC2)C3)cc1 | 60.3 | 1180 | –
C[C@H]1CCC/C=C/C2C[C@H](O)C[C@H]2[C@H](O)/C=C/C(=O)O1 (some centres undefined) | 31.1 | 10.5 | –
O=C(Nc1cccc(Nc2ncc(Br)c(NCCc3cnc[nH]3)n2)c1)N1CCCC1 | 6.39 | 20900 | –
COc1cccc2c1C(=O)c1c(O)c3c(c(O)c1C2=O)C[C@@](O)(C(C)=O)C[C@@H]3O[C@H]1C[C@H](N)[C@H](O)[C@H](C)O1 | 33.5 | 372 | –
CN(C)C1CCN(C(=O)c2ccc(NC(=O)Nc3nc(N4CCOCC4)nc(N4CCOCC4)n3)cc2)CC1 | 44.5 | 37.2 | –
